Measured values taken from ChEMBL document CHEMBL5385889, “Design, synthesis and biological evaluations of quinolone amides against African trypanosomiasis with improved solubility” (Eur J Med Chem, 2023).
pIC50: −log10 of the molar value. Converted amounts (≈) assume the structure as drawn.

What was measured:
[1] = Octanol/water partition coefficient, log P of the compound by LC-MS analysis; format: physicochemical
J774.1 = assay: Cytotoxicity against mouse J774.1 cells assessed as reduction in cell viability incubated for 24 hrs by alamar blue staining based analysis; format: functional
[2] = Thermodynamic aqueous solubility of compound in PBS buffer at pH 7.4 at 37 degreeC measured after 24 hrs by HPLC analysis; format: physicochemical; conditions: read-out: Therm_solubility
[3] = Selectivity index, ratio of CC50 for cytotoxicity against mouse J774.1 cells assessed as reduction in cell viability to IC50 for antitrypanosomal activity against wild type Trypanosoma brucei M1.2 Lister 427 trypomastigotes form assessed as parasite growth inhibition; format: toxicity, cell-based; conditions: read-out: Ratio CC50/IC50
Trypanosoma brucei = assay: Antitrypanosomal activity against wild type Trypanosoma brucei M1.2 Lister 427 trypomastigotes form assessed as parasite growth inhibition incubated for 48 hrs; format: functional, organism-based; conditions: M1.2 Lister 427, 48 h

Compound | logP ([1]; read-out: logP) | CC50 (J774.1) [µM] | solubility thermodynamic at 24 h [2] [µg/mL] | selectivity ratio [3] | pIC50 (Trypanosoma brucei) | logP [1]
CCCCn1cc(C(=O)NCc2ccc(C#N)cc2)c(=O)c2c(F)cc(N3CCOCC3)cc21 | 2.9 | > 50 | 0.88 (≈ 1.9 µM) | > 500 | 7.00 | 
CCCCN1CC(C)(C(=O)NCc2ccccc2)C(=O)c2ccc(N3CCOCC3)cc21 (centres undefined) | 3.04 | > 50 | 10.4 (≈ 23.9 µM) | > 13 | 5.43 | 
CCCCn1cc(C(=O)NCc2cccc(CN)c2)c(=O)c2cc(F)c(N3CCOCC3)cc21 | 3.83 | 41.8 | > 1000 | 80 | 6.28 | 
CCCCn1cc(C(=O)NCc2cccc(C#N)c2)c(=O)c2c(F)cc(N3CCOCC3)cc21 | 2.98 | > 50 | 0.24 (≈ 0.519 µM) | > 2270 | 7.66 | 
CCCCn1cc(C(=O)NC2(c3ccccc3)CCCCC2)c(=O)c2cc(F)c(N3CCOCC3)cc21 | 5.64 | 31 | < 0.1 | 7 | 5.33 | 
CCCCn1cc(C(=O)NCc2ccccc2)c(=O)c2cc(F)c(N3CCOCC3)c(Cl)c21 | 5.01 | > 50 | < 0.1 | > 278 | 6.74 | 
CCCCn1cc(C(=O)NCc2ccccc2)c(=O)c2ccc(NCCOCCOCCOC)cc21 | 3.38 | > 50 | 41 (≈ 82.7 µM) | > 43 | 5.94 | 
CCCCn1cc(C(=O)NCc2ccccc2)c(=O)c2cc(F)c(N3CCOCC3)c(Br)c21 | 5.05 | > 50 | < 0.1 | > 106 | 6.33 | 
CCCCn1cc(C(=O)NC2(c3ccccc3)CCCC2)c(=O)c2ccc(N3CCOCC3)cc21 | 4.57 | 34.1 | < 0.1 | 8 | 5.36 | 
CCCCn1cc(C(=O)NC2(c3ccccc3)CCS(=O)(=O)CC2)c(=O)c2ccc(N3CCOCC3)cc21 | 2.83 | > 50 | 3.35 (≈ 6.23 µM) |  | < 4.70 | 
O=C(NCc1ccccc1)c1cn(CC2CC2)c2cc(N3CCOCC3)ccc2c1=O | 3.24 | > 50 | 5.81 (≈ 13.9 µM) | > 91 | 6.26 | 
CCCCn1cc(C(=O)NCc2ccccc2)c(=O)c2ccc(N3CCC(OCCOCCOCCOC)CC3)cc21 | 4.05 | 48.5 | 86.9 (≈ 150 µM) | 48 | 6.00 | 
CCCCn1cc(C(=O)NC2(c3ccccc3)CCCCC2)c(=O)c2c(F)cc(N3CCOCC3)cc21 | 4.97 | > 50 | < 0.1 | > 12 | 5.37 | 
CCCCn1cc(C(=O)NC2(c3ccccc3)CCCC2)c(=O)c2cc(F)c(N3CCOCC3)cc21 | 5.24 | 47.4 | < 0.1 | 26 | 5.74 | 
CCCCn1cc(C(=O)NCc2ccccc2)c(=O)c2ccc(OCCOCCOCCOC)cc21 | 3.57 | > 50 | 93 (≈ 187 µM) | > 45 | 5.95 | 
CCCCn1cc(C(=O)NC2(c3ccccc3)CC2)c(=O)c2ccc(N3CCOCC3)cc21 | 3.76 | > 50 | < 0.1 | > 69 | 6.14 | 
CCCCn1cc(C(=O)NCc2ccccc2)c(=O)c2cc(OCC)c(N3CCOCC3)c(OCC)c21 | 5.51 | 33.2 | < 0.1 | 17 | 5.71 | 

Compound | logP ([1]; read-out: logP) | CC50 (J774.1) [µM] | solubility thermodynamic at 24 h [2] [µg/mL] | selectivity ratio [3] | pIC50 (Trypanosoma brucei) | logP [1]
CCCCn1cc(C(=O)NCc2cccc(CN)c2)c(=O)c2ccc(N3CCOCC3)cc21 | 3.31 | > 50 | > 1000 | > 46 | 5.97 | 
CCCCn1cc(C(=O)NCc2ccccc2)c(=O)c2ccc(N3CCCN(C)CC3)cc21 | 4.51 | 14.2 | 20.9 (≈ 46.8 µM) | 5 | 5.53 | 
O=C(NCc1ccccc1)c1cn(C23CC(C2)C3)c2cc(N3CCOCC3)ccc2c1=O | 4.57 | 48.4 | 4.06 (≈ 9.45 µM) | 373 | 6.89 | 
CCCCn1cc(C(=O)NC2(c3ccccc3)CC2)c(=O)c2c(F)cc(N3CCOCC3)cc21 | 3.54 | > 50 | < 0.1 | > 278 | 6.74 | 
CCCCn1cc(C(=O)NC2(c3ccccc3)CC2)c(=O)c2cc(F)c(N3CCOCC3)c(F)c21 | 4.57 | > 20 | 0.23 (≈ 0.478 µM) | > 333 | 7.22 | 
CCCCn1cc(C(=O)NCc2ccc(CN)cc2)c(=O)c2ccc(N3CCOCC3)cc21 | 3.24 | > 50 | > 1000 | > 32 | 5.81 | 
O=C(NCc1ccccc1)c1cn(CC2CCCCC2)c2cc(N3CCOCC3)ccc2c1=O | 4.59 | > 50 | < 0.1 | > 58 | 6.07 | 
O=C(NCc1ccccc1)c1cn(CC2CCC2)c2cc(N3CCOCC3)ccc2c1=O | 3.68 | 29.9 | 1.66 (≈ 3.85 µM) | 37 | 6.10 | 
CCCCn1cc(C(=O)NCc2ccc(CN)cc2)c(=O)c2c(F)cc(N3CCOCC3)cc21 | 2.72 | > 50 | > 1000 | > 200 | 6.60 | 
CCCCn1cc(C(=O)NC2(c3ccccc3)CCCCC2)c(=O)c2ccc(N3CCOCC3)cc21 | 4.94 | 37 | < 0.1 | 9 | 5.38 | 
CCCCn1cc(C(=O)NCc2ccccc2)c(=O)c2ccc(N3CCOCC3)cc21 |  | > 100 |  | > 435 | 6.64 | 
CCCCn1cc(C(=O)NCc2ccccc2)c(=O)c2cc(F)c(N3CCOCC3)cc21 |  | 57 |  | 1210 | 7.33 | 4.1
CCCCn1cc(C(=O)NC2(c3ccccc3)CCOCC2)c(=O)c2ccc(N3CCOCC3)cc21 | 3.6 | > 50 | 1.03 (≈ 2.1 µM) |  | < 4.70 | 
CCCCn1cc(C(=O)NCc2ccccc2)c(=O)c2c(F)cc(N3CCOCC3)cc21 | 3.38 | > 100 |  | > 2000 | 7.30 | 
CCCCn1cc(C(=O)NC23CC(C2)C3)c(=O)c2ccc(N3CCOCC3)cc21 | 3.74 | > 50 | 3.02 (≈ 7.64 µM) | > 13 | 5.43 | 
CCCCn1cc(C(=O)NCc2ccc(CN)cc2)c(=O)c2cc(F)c(N3CCOCC3)cc21 | 3.8 | 49.2 | > 1000 | 164 | 6.52 | 
CCCCn1cc(C(=O)NC2(c3ccccc3)CC2)c(=O)c2cc(F)c(N3CCOCC3)cc21 | 4.46 | > 50 | < 0.1 | > 333 | 6.82 | 
